Tested on: STAT5 phosphorylation downstream of JAK3 in human YT cells
Test: pSTAT5 cell assay (IL-2 stimulated YT cells, AlphaScreen)
Format: cell-based
Conditions: IL-2 stimulation, read-out: Inhibition values (IC50) pSTAT5
From the text: STAT5 phosphorylation represents one of the proximal events in the signalling cascade downstream of JAK3 activation. Therefore STAT5 phosphorylation is an appropriate readout to assess the mechanistic effect of JAK3 inhibition. Stimulation of human YT cells, an NK-like cell line, with interleukin-2 (IL-2) results in phosphorylation of STAT5 at tyrosine residue 694 (Tyr694) that can be quantitatively measured by immunodetection with specific antibodies and an appropriate detection method, in this case AlphaScreen assay technology.
Human YT cells were grown in RPMI medium (Lonza, BE12-167) with 2 mM L-Glutamine (Invitrogen, 25030-024) and 10% heat-inactivated FBS (Invitrogen, 10106-169) and kept in a humidified incubator (37° C., 5% CO2). Cells were harvested by centrifugation, washed once with HBSS (Invitrogen, 14180-046), resuspended in HBSS at 1.5×10^6 cells/ml and 0.9×10^4 cells were seeded in 6 μl per well in a 96 well White plate (PerkinElmer, 6005569).
Test compounds were dissolved in DMSO and a 1:3 dilution series (9 steps) was prepared. To generate a dose response curve, 3 μl of fourfold concentrated compound in 4% DMSO/HBSS were added to each cell sample in the 96 well plate resulting in a final DMSO concentration of 1% DMSO. Cells were incubated for one hour in a humidified incubator (37° C., 5% CO2). To each well 3 μl of a fourfold concentrated IL-2 solution (Recombinant human IL-2, Peprotech 200-02; 120 nM solution in HBSS) was added and incubated for 30 minutes at room temperature. Cells were lysed by adding 3 μl of 5× lysis buffer (SureFire lysis buffer; Perkin Elmer, TGRS5S10K) and incubated for 10 minutes at room temperature with gentle shaking
For signal detection by AlphaScreen® technology the SureFire phospho-STAT5 (Tyr694/Tyr699) kit was used according to instructions provided by the manufacturer (Perkin Elmer, TGRS5S10K). Acceptor beads were added as recommended by the manufacturer (Reactivation buffer/Activation buffer/Acceptor beads at a ratio of 40:10:1) and incubated at room temperature for 1.5 hours with gentle shaking Then donor beads were added as recommended (Dilution buffer/Donor beads at a ratio of 20:1) and incubated at room temperature for 1.5 hours with gentle shaking Plates were read on an Envision instrument (Perkin Elmer) with the AlphaScreen protocol. Data were analysed in BioAssay using the nonlinear regression for a sigmoidal dose-response with a variable slope.

Compound	IC50 [nM]
OCCn1cc(Nc2ncc(Cl)c(N[C@H](CO)c3ccccc3)n2)cn1 [Compound 9]	250 to 1000
OC[C@@H](Nc1nc(Nc2cnn(CC(F)F)c2)ncc1Cl)c1ccccc1F [Compound 165]	< 250
Cn1cc(Nc2ncc(Cl)c(N[C@H](CO)c3ccccc3)n2)cn1 [Compound 4]	250 to 1000

Reference: patent publication US20140179664A1, “Heterocyclyl Pyrimidine Analogues As JAK Inhibitors” (Cellzome Limited, priority 2011, published 2014)
